“And” between values parts separate entries of the source, which are not always exact repeats. Equal values may be shown once. Where a name gives a salt, the structure may show the parent alone. One block for each compound: values may come before it.
Legend:
cdk4/cyclin D1 = cdk4/cyclin D1 (Homo sapiens, UniProt P11802); assay: Cyclin-dependent kinase assay, cdk4/cyclin D1 (GST-pRb substrate); type: biochemical; details: inhibition of cyclin D1/CDK 4 enzyme activity
cdk1/cyclin B = cdk1/cyclin B (Homo sapiens, UniProt P06493); assay: Cyclin-dependent kinase assay, cdk1/cyclin B (Histone H1 substrate)
Sequence of cdk1/cyclin B (P06493 whole entry): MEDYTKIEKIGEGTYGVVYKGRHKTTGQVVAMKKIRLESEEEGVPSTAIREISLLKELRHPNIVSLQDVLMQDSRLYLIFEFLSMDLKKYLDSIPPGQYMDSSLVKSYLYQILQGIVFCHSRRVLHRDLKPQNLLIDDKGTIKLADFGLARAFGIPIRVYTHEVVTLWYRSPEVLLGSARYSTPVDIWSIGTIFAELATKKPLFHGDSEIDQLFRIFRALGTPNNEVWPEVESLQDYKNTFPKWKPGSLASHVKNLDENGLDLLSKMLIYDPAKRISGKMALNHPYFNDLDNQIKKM
Sequence of cdk1/cyclin B (P14635 whole entry partner): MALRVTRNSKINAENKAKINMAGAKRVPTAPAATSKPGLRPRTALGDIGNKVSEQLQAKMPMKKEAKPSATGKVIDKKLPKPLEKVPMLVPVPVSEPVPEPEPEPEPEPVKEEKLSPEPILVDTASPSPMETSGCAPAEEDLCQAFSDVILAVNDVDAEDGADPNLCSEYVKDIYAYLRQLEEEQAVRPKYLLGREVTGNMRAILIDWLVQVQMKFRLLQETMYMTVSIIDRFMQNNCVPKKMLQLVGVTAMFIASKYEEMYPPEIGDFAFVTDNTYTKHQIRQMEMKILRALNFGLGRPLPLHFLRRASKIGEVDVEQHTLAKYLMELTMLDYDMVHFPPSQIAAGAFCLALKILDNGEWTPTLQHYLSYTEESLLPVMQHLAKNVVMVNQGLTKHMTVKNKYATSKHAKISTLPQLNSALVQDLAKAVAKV

[1] = Red blood cell binding (RBC to plasma ratio), mouse whole blood; type: in vitro ADME; details: 30 minutes at 37° C., nominal 500 ng/ml
Method: (§1) Compounds, including one positive control, are assessed for red blood cell (RBC) uptake, using a modified procedure based on the protocol reported in Sun, J. X. S., et al. High-performance liquid chromatographic analysis, plasma protein binding and red blood cell partitioning of phenprobamate. Biopharmaceutics and Drug Disposition, 8 (1987) 341-351.
(§2) Briefly, RBC uptake is evaluated by comparison of the levels in spiked plasma (n=3) and plasma isolated from spiked whole blood (n=3). Compounds are incubated with human and mouse whole blood, respectively, for 30 minutes at 37° C. using a nominal concentration of 500 ng/ml. Following centrifugation, the plasma is removed and submitted for analysis. Each compound is also spiked into blank plasma at a nominal concentration of 500 ng/ml, and submitted for analysis. Levels in the two plasma samples (Cp′ and Cp in the equation below) and the blood hematocrit are used to determine the red blood cell to plasma ratio (Crbc/Cp). [formula] In equation 1, Cp′ is the level of drug in the spiked “blank” plasma, Cp is the level of drug in the plasma of spiked whole blood, and H is the hematocrit. The hematocrit values are determined as 0.4 for human whole blood and 0.41 for mouse whole blood. The samples are analyzed with ESI LC/MS, using positive ion detection with an internal standard.
(§3) The red blood cell to plasma ratio is determined for each compound using equation 1. Tables 6 and 7 summarize the respective mean Crbc/Cp values and standard deviations for mouse and human whole blood, respectively, in descending order based on the red blood cell to plasma ratio, where “*” denotes Positive Control, and “ND” denotes Not Determined. MDL 108552 is included as a positive control for red blood cell uptake.

[2] = Red blood cell binding (RBC to plasma ratio), human whole blood; type: in vitro ADME; details: 30 minutes at 37° C., nominal 500 ng/ml
Method: as §1, §2, §3

[3] = Plasma pharmacokinetics in mice after single intravenous cassette doses; details: mice; for Mean concentration in plasma: single 18 mg/kg intravenous cassette dose (Cassette #1)
[4] = Cassette #4, single 15 mg/kg iv cassette dose (3 mg/kg/compound), 8 h
[5] = Cassette #4, single 15 mg/kg iv cassette dose (3 mg/kg/compound), 24 h
[6] = Cassette #2, single 18 mg/kg iv cassette dose (3 mg/kg/compound), 24 h
[7] = 24 h, BLQ = below assay quantification limit (approx. 1 ng/ml)
[8] = Cassette #3, single 15 mg/kg iv cassette dose (3 mg/kg/compound), 24 h

Sequence of cdk4/cyclin D1 (P11802 whole entry): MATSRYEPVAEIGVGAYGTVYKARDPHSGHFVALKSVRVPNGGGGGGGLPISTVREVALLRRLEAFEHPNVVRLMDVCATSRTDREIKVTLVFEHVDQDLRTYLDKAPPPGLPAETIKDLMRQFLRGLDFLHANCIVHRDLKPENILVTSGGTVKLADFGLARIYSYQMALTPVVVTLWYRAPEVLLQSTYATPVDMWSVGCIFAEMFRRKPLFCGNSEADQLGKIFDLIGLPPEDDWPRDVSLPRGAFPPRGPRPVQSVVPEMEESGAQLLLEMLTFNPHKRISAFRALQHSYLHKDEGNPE
Sequence of cdk4/cyclin D1 (P24385 whole entry partner): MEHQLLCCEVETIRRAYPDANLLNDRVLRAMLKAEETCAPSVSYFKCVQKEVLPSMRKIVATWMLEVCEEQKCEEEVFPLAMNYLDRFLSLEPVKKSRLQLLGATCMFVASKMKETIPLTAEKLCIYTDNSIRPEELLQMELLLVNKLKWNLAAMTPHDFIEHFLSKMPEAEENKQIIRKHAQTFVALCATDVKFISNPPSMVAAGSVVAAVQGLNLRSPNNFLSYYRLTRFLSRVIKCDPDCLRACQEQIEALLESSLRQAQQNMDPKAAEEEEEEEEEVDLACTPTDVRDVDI

SMILES: Cl.Cl.N[C@H]1CC[C@H](Nc2nc(NC3CCN(C(=O)Oc4ccc([N+](=O)[O-])cc4)CC3)c3ncn(C4CCCC4)c3n2)CC1 [Compound 89, trans-4-[2-(4-Amino-cyclohexylamino)-9-cyclopentyl-9H-purin-6-ylamino]-piperidine-1-carboxylic acid 4-nitro-phenyl ester dihydrochloride]
Mean Red Blood Cell to Plasma Ratio ([1]; hematocrit 0.41): 4.7
Mean Red Blood Cell to Plasma Ratio [2]: 4.2
Mean Conc. in plasma ([3]; Cassette #4, single 15 mg/kg iv cassette dose (3 mg/kg/compound), 0.083 h): 642.0 ± 49.5 ng/mL
Mean Conc. in plasma ([3]; Cassette #4, single 15 mg/kg iv cassette dose (3 mg/kg/compound), 0.25 h): 303.3 ± 34.3 ng/mL
Mean Conc. in plasma ([3]; Cassette #4, single 15 mg/kg iv cassette dose (3 mg/kg/compound), 0.5 h): 142.4 ± 2.7 ng/mL
Mean Conc. in plasma ([3]; Cassette #4, single 15 mg/kg iv cassette dose (3 mg/kg/compound), 1 h): 52.4 ± 4.2 ng/mL
Mean Conc. in plasma ([3]; Cassette #4, single 15 mg/kg iv cassette dose (3 mg/kg/compound), 3 h): 17.0 ± 4.7 ng/mL
Mean Conc. in plasma ([3]; Cassette #4, single 15 mg/kg iv cassette dose (3 mg/kg/compound), 6 h): 3.7 ± 1.0 ng/mL
Mean Conc. in plasma [3, 4]: 3.8 ± 0.5 ng/mL
Mean Conc. in plasma [3, 5]: BLQ

SMILES: Cl.Cl.N[C@H]1CC[C@H](Nc2nc(NC3CCN(C(=O)Oc4ccc(Br)cc4)CC3)c3ncn(C4CCCC4)c3n2)CC1 [Compound 81, trans-4-[2-(4-Amino-cyclohexylamino)-9-cyclopentyl-9H-purin-6-ylamino]-piperidine-1-carboxylic acid 4-bromo-phenyl ester dihydrochloride]
Mean Red Blood Cell to Plasma Ratio ([1]; hematocrit 0.41, dihydrochloride): 4.5 and 3.3
Mean Red Blood Cell to Plasma Ratio [2]: 5.3
Mean Conc. in plasma [3, 6]: BLQ

SMILES: COc1ccc(OC(=O)N2CCC(Nc3nc(N[C@H]4CC[C@H](N)CC4)nc4c3ncn4C3CCCC3)CC2)cc1.Cl.Cl [Compound 84, trans-4-[2-(4-Amino-cyclohexylamino)-9-cyclopentyl-9H-purin-6-ylamino]-piperidine-1-carboxylic acid 4-methoxy-phenyl ester dihydrochloride]
Mean Red Blood Cell to Plasma Ratio ([1]; hematocrit 0.41): 3.5
Mean Red Blood Cell to Plasma Ratio [2]: 2.0
Mean Conc. in plasma [3, 6]: BLQ

SMILES: Cl.Cl.N[C@H]1CC[C@H](Nc2nc(NC3CCN(C(=O)Oc4ccc(Cl)cc4)CC3)c3ncn(C4CCCC4)c3n2)CC1 [Compound 88, trans-4-[2-(4-Amino-cyclohexylamino)-9-cyclopentyl-9H-purin-6-ylamino]-piperidine-1-carboxylic acid 4-chloro-phenyl ester dihydrochloride]
Mean Red Blood Cell to Plasma Ratio ([1]; hematocrit 0.41): 3.5
Mean Red Blood Cell to Plasma Ratio [2]: 2.6
Mean Conc. in plasma ([3]; Cassette #3, single 15 mg/kg iv cassette dose (3 mg/kg/compound), 0.083 h): 1483.3 ± 272.5 ng/mL
Mean Conc. in plasma ([3]; Cassette #3, single 15 mg/kg iv cassette dose (3 mg/kg/compound), 0.25 h): 420.9 ± 49.9 ng/mL
Mean Conc. in plasma ([3]; Cassette #3, single 15 mg/kg iv cassette dose (3 mg/kg/compound), 0.5 h): 150.2 ± 5.9 ng/mL
Mean Conc. in plasma ([3]; Cassette #3, single 15 mg/kg iv cassette dose (3 mg/kg/compound), 1 h): 74.6 ± 16.1 ng/mL
Mean Conc. in plasma ([3]; Cassette #3, single 15 mg/kg iv cassette dose (3 mg/kg/compound), 3 h): 24.8 ± 7.4 ng/mL
Mean Conc. in plasma ([3]; Cassette #3, single 15 mg/kg iv cassette dose (3 mg/kg/compound), 6 h): 8.9 ± 1.6 ng/mL
Mean Conc. in plasma ([3]; Cassette #3, single 15 mg/kg iv cassette dose (3 mg/kg/compound), 8 h): 5.4 ± 2.0 ng/mL
Mean Conc. in plasma [3, 8]: BLQ

SMILES: Cl.Cl.N[C@H]1CC[C@H](Nc2nc(NC3CCN(C(=O)Oc4ccccc4)CC3)c3ncn(C4CCCC4)c3n2)CC1 [Compound 85, trans-4-[2-(4-Amino-cyclohexylamino)-9-cyclopentyl-9H-purin-6-ylamino]-piperidine-1-carboxylic acid phenyl ester dihydrochloride]
Mean Red Blood Cell to Plasma Ratio ([1]; hematocrit 0.41): 6.1
Mean Red Blood Cell to Plasma Ratio [2]: 7.1
Mean concentration in plasma ([3]; 0.083 h): 843.3 ± 124.5 ng/mL
Mean concentration in plasma ([3]; 0.25 h): 341.6 ± 45.1 ng/mL
Mean concentration in plasma ([3]; 0.5 h): 163.8 ± 15.7 ng/mL
Mean concentration in plasma ([3]; 1 h): 89.0 ± 21.5 ng/mL
Mean concentration in plasma ([3]; 3 h): 14.3 ± 7.1 ng/mL
Mean concentration in plasma ([3]; 6 h): 5.2 ± 1.9 ng/mL
Mean concentration in plasma ([3]; 8 h): 3.2 ng/mL
Mean concentration in plasma [3, 7]: BLQ

The next lines start with the values.

IC50 (cdk4/cyclin D1): 167 nM
IC50 (cdk1/cyclin B): 25 nM
SMILES: N[C@H]1CC[C@H](Nc2nc(NC3CCN(C(=O)/C=C/c4ccccc4)CC3)c3ncn(C4CCCC4)c3n2)CC1 [Compound 62, trans-(E)-1-{4-[2-(4-Amino-cyclohexylamino)-9-cyclopentyl-9H-purin-6-ylamino]-piperidin-1-yl}-3-phenyl-propenone dihydrochloride]

Mean Red Blood Cell to Plasma Ratio ([1]; hematocrit 0.41): 2.2
Mean Red Blood Cell to Plasma Ratio [2]: 1.2
Mean concentration in plasma [3, 7]: BLQ
SMILES: COC(=O)c1ccccc1S(=O)(=O)N1CCC(Nc2nc(N[C@H]3CC[C@H](N)CC3)nc3c2ncn3C2CCCC2)CC1.Cl.Cl [Compound 111, trans-2-{4-[2-(4-Amino-cyclohexylamino)-9-cyclopentyl-9H-purin-6-ylamino]-piperidine-1-sulfonyl}-benzoic acid methyl ester dihydrochloride]

Mean Red Blood Cell to Plasma Ratio ([1]; hematocrit 0.41): 3.0
Mean Red Blood Cell to Plasma Ratio [2]: 3.9
Mean Conc. in plasma [3, 4]: BLQ^a
Mean Conc. in plasma [3, 5]: BLQ
SMILES: Cl.Cl.N[C@H]1CC[C@H](Nc2nc(NC3CCN(S(=O)(=O)c4ccc(F)cc4)CC3)c3ncn(C4CCCC4)c3n2)CC1 [Compound 106, trans-N^2-(4-Amino-cyclohexyl)-9-cyclopentyl-N^6-[1-(4-fluoro-benzenesulfonyl)-piperidin-4-yl]-9H-purine-2,6-diamine dihydrochloride]

Mean Red Blood Cell to Plasma Ratio ([1]; hematocrit 0.41): 2.4
Mean Red Blood Cell to Plasma Ratio [2]: 3.7
Mean Conc. in plasma [3, 8]: BLQ
SMILES: Cl.Cl.N[C@H]1CC[C@H](Nc2nc(NC3CCN(S(=O)(=O)c4cccc(C(F)(F)F)c4)CC3)c3ncn(C4CCCC4)c3n2)CC1 [Compound 112, trans-N^2-(4-Amino-cyclohexyl)-9-cyclopentyl-N^6-[1-(3-trifluoromethyl-benzenesulfonyl)-piperidin-4-yl]-9H-purine-2,6-diamine dihydrochloride]

Mean Red Blood Cell to Plasma Ratio ([1]; hematocrit 0.41): 1.9
Mean Red Blood Cell to Plasma Ratio [2]: 3.6
Mean concentration in plasma [3, 7]: BLQ
SMILES: Cl.Cl.N[C@H]1CC[C@H](Nc2nc(NC3CCN(C(=O)c4cccc(C(F)(F)F)c4F)CC3)c3ncn(C4CCCC4)c3n2)CC1 [Compound 12, trans-1-{4-[2-(4-Amino-cyclohexylamino)-9-cyclopentyl-9H-purin-6-ylamino]-piperidin-1-yl}-1-(2-fluoro-3-trifluoromethyl-phenyl)-methanone dihydrochloride]

IC50 (cdk4/cyclin D1): > 10000 nM
SMILES: C=CCCOC(=O)N1CCC(Nc2nc(N[C@H]3CC[C@H](N)CC3)nc3c2ncn3C2CCCC2)CC1 [Compound 100, trans-4-[2-(4-Amino-cyclohexylamino)-9-cyclopentyl-9H-purin-6-ylamino]-piperidine-1-carboxylic acid but-3-enyl ester dihydrochloride]

Mean Red Blood Cell to Plasma Ratio ([1]; hematocrit 0.41): 3.4
Mean Red Blood Cell to Plasma Ratio [2]: 2.8
Mean Conc. in plasma [3, 8]: BLQ
SMILES: Cl.Cl.N[C@H]1CC[C@H](Nc2nc(NC3CCN(C(=O)Nc4ccc(C(F)(F)F)cc4)CC3)c3ncn(C4CCCC4)c3n2)CC1 [Compound 149, trans-4-[2-(4-Amino-cyclohexylamino)-9-cyclopentyl-9H-purin-6-ylamino]-piperidine-1-carboxylic acid (4-trifluoromethyl-phenyl)-amide dihydrochloride]

IC50 (cdk4/cyclin D1): > 10000 nM
SMILES: COc1cc(COC(=O)N2CCC(Nc3nc(N[C@H]4CC[C@H](N)CC4)nc4c3ncn4C3CCCC3)CC2)c([N+](=O)[O-])cc1OC [Compound 101, trans-4-[2-(4-Amino-cyclohexylamino)-9-cyclopentyl-9H-purin-6-ylamino]-piperidine-1-carboxylic acid 4,5-dimethoxy-2-nitro-benzyl ester dihydrochloride]

Source: patent publication US6861524B2, “Acyl and sulfonyl derivatives of 6,9-disubstituted 2-(trans-1,4-diaminocyclohexyl)-purines and their use as antiproliferative agents” (Aventis Pharmaceuticals Inc., priority 2000, dated 2005)
